Here are results for 5 molecules from ChEMBL document CHEMBL1201862, “PubChem BioAssay data set” (2004).

Active and inactive are the calls of the source.

One test addresses Phosphomannomutase 2 (Homo sapiens, UniProt O15305). Kind of test: Counter screen SAR assay for PMM2 inhibitors via a fluorescence intensity assay. [Related pubchem assays (depositor defined):AID1545, AID1574].
The target of test [1] is T1, Mannose-6-phosphate isomerase (Homo sapiens, UniProt P34949).
T1 sequence (P34949 whole entry): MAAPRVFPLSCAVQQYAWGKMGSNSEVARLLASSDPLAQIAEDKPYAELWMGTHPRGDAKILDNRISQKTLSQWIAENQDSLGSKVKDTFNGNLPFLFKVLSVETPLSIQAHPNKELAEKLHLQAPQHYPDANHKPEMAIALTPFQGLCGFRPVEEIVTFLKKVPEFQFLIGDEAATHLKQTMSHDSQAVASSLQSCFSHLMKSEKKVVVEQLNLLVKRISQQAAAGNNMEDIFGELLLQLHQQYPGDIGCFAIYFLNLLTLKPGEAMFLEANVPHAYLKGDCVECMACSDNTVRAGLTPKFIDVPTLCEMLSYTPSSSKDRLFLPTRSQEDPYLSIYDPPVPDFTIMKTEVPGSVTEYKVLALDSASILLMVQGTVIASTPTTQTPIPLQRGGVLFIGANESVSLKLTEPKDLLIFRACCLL
Put plainly: MPI inhibition at elevated mannose 6-phosphate – biochemical, fluorescence intensity, high mannose 6-phosphate, primary screen (AID 1220).

Another test has as its target Large T antigen (Simian virus 40, UniProt P03070). The test is classed as functional, Betapolyomavirus macacae.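 Note: Confirmatory-stage PubChem screen for compounds that inhibit SV40 T antigen.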
The target in test [2] is Glucose-6-phosphate 1-dehydrogenase (Homo sapiens, UniProt P11413). Put plainly: inhibition of Homo sapiens G6PD, dose series – biochemical, fluorescence, selectivity assay for P. falciparum G6PD inhibitor project, dose response (AID 504792). Type of test: functional.
Sequence of Glucose-6-phosphate 1-dehydrogenase (P11413 whole entry): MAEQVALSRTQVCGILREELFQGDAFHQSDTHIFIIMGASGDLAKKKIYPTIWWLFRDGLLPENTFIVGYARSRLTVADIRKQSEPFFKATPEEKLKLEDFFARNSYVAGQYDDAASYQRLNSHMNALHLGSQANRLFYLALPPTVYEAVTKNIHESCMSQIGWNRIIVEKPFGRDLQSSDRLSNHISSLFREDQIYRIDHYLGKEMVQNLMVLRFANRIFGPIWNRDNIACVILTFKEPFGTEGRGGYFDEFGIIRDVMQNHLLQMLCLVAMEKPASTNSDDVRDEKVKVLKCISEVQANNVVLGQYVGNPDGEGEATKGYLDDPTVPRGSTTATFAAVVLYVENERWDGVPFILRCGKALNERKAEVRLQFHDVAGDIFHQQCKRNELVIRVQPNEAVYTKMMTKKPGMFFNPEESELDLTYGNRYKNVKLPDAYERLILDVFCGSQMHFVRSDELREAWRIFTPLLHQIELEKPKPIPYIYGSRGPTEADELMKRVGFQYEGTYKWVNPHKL
For test [3], the target named is Eukaryotic translation initiation factor 4E (Mus musculus, UniProt P63073). Kind of test: blockers of eIF4G binding by eIF4E – biochemical, TR-FRET, dose response (AID 855).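 Note: potency for disrupting eIF4E binding to eIF4GI seen as loss of FRET.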 Type of test: functional. In general terms: Time-resolved FRET reads energy transfer from a long-lived donor to a nearby acceptor.
For test [4], the target named is T1, Mannose-6-phosphate isomerase. Kind of test: phosphomannose isomerase inhibition – biochemical, fluorescence intensity, confirmation (AID 1535).
A further test deals with Vero. Kind of test: cells. The test is classed as functional. To be noted: Chlorocebus sabaeus.
Test [5] relates to HEK293. Put plainly: cells. Type of test: functional, cell-based. To be noted: Homo sapiens.
Test [6] deals with HEK293. Put plainly: cells. The test is classed as functional, cell-based. To be noted: Homo sapiens. This is another data set of the same source.
Test [7] deals with T2, Nucleotide-binding oligomerization domain-containing protein 2 (Homo sapiens, UniProt Q9HC29). Kind of test: inhibition of NOD2-driven NF-kB reporter – cell-based, luminescence, uHTS, HEK293 (AID 1566). The test is classed as functional.
T2 sequence (Q9HC29 whole entry, the tested form may be a part): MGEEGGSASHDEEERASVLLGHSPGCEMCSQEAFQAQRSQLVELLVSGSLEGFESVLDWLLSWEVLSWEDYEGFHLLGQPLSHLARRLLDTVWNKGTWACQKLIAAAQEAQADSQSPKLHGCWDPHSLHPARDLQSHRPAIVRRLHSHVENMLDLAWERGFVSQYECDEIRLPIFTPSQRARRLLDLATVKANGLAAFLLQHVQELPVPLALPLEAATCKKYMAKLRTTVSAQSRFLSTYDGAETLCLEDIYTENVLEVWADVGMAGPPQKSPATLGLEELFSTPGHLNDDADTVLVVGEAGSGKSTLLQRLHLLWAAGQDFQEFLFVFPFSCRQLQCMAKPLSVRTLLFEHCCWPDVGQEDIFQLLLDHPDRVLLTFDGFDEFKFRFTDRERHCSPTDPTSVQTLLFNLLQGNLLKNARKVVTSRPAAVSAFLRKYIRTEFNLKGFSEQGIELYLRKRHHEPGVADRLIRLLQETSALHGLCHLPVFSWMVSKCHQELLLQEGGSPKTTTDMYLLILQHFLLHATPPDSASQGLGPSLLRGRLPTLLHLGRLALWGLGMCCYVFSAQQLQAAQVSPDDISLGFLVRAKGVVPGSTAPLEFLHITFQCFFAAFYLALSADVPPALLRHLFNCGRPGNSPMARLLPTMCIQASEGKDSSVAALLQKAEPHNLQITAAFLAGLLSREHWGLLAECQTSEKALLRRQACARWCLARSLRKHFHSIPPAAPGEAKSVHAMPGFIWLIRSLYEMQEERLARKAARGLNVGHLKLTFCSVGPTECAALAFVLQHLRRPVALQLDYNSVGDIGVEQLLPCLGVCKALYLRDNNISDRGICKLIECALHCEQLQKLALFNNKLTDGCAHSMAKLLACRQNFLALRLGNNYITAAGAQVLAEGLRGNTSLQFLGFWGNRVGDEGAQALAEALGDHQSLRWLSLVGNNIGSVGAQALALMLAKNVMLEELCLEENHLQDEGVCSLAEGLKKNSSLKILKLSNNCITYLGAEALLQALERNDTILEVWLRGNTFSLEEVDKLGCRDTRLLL
The next test has as its target Tumor necrosis factor (Homo sapiens, UniProt P01375). Kind of test: analog potency on TNFa NF-kB signaling – cell-based, revised, SAR follow-up (AID 2337). Type of test: functional.
Test [8] has as its target Nucleotide-binding oligomerization domain-containing protein 1 (Homo sapiens, UniProt Q9Y239). Kind of test: blockers of NOD1 pathway activity – revised, SAR follow-up (AID 2333). The test is classed as functional.
Test [9] concerns HEK293. Kind of test: NOD2 signaling inhibitors in MDP-stimulated cells, cell-based, uHTS, luminescence (AID 2001). To be noted: Homo sapiens. Type of test: functional.
Test [10] deals with T2, Nucleotide-binding oligomerization domain-containing protein 2. Kind of test: PubChem AID 2334. The test is classed as functional.
The test system of test [11] is HEK293. Put plainly: cells. To be noted: Homo sapiens.
In test [12] the test system is HEK293. Put plainly: cells. Type of test: functional, cell-based. To be noted: Homo sapiens. This is another data set of the same source.
Test [13] deals with HEK293. Kind of test: inhibition of NOD1-driven NF-kB reporter – cell-based, luminescence, uHTS, primary screen (AID 1578). The test is classed as functional. To be noted: Homo sapiens.
In test [14] the target is T3, Calpain-2 catalytic subunit (Sus scrofa, UniProt P43367).
T3 sequence (P43367 whole entry): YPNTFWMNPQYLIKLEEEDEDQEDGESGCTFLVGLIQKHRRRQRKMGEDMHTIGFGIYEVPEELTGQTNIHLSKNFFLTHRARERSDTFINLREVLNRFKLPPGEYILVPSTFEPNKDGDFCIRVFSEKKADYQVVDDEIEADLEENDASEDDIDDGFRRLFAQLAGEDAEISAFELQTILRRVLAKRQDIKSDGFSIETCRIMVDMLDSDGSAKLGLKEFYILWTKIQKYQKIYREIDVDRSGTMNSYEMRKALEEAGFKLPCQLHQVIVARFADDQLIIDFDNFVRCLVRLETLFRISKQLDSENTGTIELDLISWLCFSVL
Kind of test: m-calpain protease blockers, concentration series – biochemical, fluorogenic peptide substrate, dose response (AID 1420). The test is classed as functional.

The next test concerns the target Hexokinase (Trypanosoma brucei, UniProt Q38C41). Kind of test: Confirmation assay for inhibitors of Trypanosoma brucei hexokinase 1-Analogue-first series. [Related pubchem assays (depositor defined):AID1430, AID1632, AID2516, AID2560, AID2579, AID2600, AID449725, AID492951]. Type of test: functional.
For test [15], the target named is T4, Delta-type opioid receptor (Homo sapiens, UniProt P41143). Kind of test: DOR agonists, SAR follow-up, image-based (AID 2370). Type of test: functional.
T4 sequence (P41143 whole entry): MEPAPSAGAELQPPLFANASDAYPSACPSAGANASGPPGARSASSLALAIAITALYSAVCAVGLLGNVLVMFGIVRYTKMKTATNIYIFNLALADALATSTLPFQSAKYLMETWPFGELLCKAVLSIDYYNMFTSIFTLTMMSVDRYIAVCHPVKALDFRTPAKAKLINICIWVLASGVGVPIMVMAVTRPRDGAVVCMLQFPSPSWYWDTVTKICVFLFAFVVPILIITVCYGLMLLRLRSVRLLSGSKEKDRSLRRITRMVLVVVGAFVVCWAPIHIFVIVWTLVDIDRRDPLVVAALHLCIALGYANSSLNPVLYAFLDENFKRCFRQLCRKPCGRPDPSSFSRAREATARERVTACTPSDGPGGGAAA
Test [16] deals with T4, Delta-type opioid receptor. Put plainly: HTS Image-Based Screen for Agonists of the DOR Receptor. [Related pubchem assays (depositor defined):AID1777, AID1786, AID2133]. The test is classed as functional.
Test [17] has as its target T4, Delta-type opioid receptor. Kind of test: delta opioid receptor blockers – image-based, SAR follow-up (AID 2357). The test is classed as functional.
The target in test [18] is T4, Delta-type opioid receptor. Put plainly: HTS Image-Based Screen for Antagonists of the DOR Receptor. [Related pubchem assays (depositor defined):AID1777, AID1785, AID1786, AID2133]. Type of test: functional.
Test [19] has as its target T5, Kappa-type opioid receptor (Homo sapiens, UniProt P41145). Put plainly: kappa opioid receptor activation potency – imaging, image-based, SAR follow-up (AID 2359). Type of test: functional.
The target of test [20] is T6, Mu-type opioid receptor (Homo sapiens, UniProt P35372). Put plainly: mu opioid receptor activators, image-based, SAR follow-up (AID 2352). Type of test: functional.
T6 sequence (P35372 whole entry): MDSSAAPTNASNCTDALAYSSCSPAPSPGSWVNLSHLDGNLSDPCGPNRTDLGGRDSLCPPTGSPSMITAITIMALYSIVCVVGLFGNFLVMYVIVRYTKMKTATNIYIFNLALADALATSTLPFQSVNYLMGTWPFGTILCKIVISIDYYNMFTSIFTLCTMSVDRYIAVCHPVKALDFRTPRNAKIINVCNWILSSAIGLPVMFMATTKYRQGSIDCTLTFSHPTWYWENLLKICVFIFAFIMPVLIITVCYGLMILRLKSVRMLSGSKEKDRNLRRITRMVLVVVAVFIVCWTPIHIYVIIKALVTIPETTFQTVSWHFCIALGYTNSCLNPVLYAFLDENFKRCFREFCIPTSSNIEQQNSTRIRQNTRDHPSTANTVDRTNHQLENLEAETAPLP
In test [21] the target is T5, Kappa-type opioid receptor. Put plainly: SAR analysis of small molecule agonists of the kappa opioid receptor via a luminescent beta-arrestin assay. [Related pubchem assays (depositor defined):AID1777, AID1786, AID1966, AID2133, AID2136, AID2348, AID2352, AID2357, AID2359, AID2370, AID2420, AID2478, AID2491, AID2492, AID2493, AID2497, AID2498, AID2500, AID449737, AID488822, AID488842]. The test is classed as functional.

Test [22] concerns the target T6, Mu-type opioid receptor. Kind of test: HTS Image-Based Screen for Agonists of the MOR Receptor. [Related pubchem assays (depositor defined):AID1777, AID1785, AID1786, AID2133]. Type of test: functional.
Test [23] has as its target T5, Kappa-type opioid receptor. Kind of test: kappa opioid receptor blockers, image-based, SAR follow-up (AID 2348). The test is classed as functional.
Test [24] concerns the target T6, Mu-type opioid receptor. Put plainly: mu opioid receptor blockers – image-based, SAR follow-up (AID 2420).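 Note: compounds added before stimulation of receptor with agonist DAMGO.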 Type of test: functional.
Test [25] has as its target T5, Kappa-type opioid receptor. Type of test: functional.
The target of test [26] is T5, Kappa-type opioid receptor. The test is classed as functional. This is another data set of the same source.
Test [27] addresses Voltage-dependent T-type calcium channel subunit alpha-1H (Homo sapiens, UniProt O95180). Put plainly: human CACNA1H calcium influx blockade – cell-based, synthetic library set 1, calcium flux (AID 493022). Type of test: functional. On the technique in general: A change in cytosolic calcium serves as a functional read-out for many receptors and channels.

T5 sequence (P41145 whole entry): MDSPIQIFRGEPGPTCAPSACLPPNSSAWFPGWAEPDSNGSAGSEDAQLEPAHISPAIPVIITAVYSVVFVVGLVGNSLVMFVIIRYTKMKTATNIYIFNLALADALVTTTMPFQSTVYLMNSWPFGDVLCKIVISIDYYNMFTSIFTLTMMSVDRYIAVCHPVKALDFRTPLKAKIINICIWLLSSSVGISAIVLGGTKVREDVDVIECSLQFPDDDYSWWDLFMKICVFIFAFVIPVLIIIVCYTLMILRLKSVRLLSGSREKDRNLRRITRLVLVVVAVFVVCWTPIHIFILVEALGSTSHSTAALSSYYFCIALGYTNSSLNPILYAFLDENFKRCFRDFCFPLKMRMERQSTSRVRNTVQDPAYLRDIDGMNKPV
Sequence of Large T antigen (P03070 whole entry): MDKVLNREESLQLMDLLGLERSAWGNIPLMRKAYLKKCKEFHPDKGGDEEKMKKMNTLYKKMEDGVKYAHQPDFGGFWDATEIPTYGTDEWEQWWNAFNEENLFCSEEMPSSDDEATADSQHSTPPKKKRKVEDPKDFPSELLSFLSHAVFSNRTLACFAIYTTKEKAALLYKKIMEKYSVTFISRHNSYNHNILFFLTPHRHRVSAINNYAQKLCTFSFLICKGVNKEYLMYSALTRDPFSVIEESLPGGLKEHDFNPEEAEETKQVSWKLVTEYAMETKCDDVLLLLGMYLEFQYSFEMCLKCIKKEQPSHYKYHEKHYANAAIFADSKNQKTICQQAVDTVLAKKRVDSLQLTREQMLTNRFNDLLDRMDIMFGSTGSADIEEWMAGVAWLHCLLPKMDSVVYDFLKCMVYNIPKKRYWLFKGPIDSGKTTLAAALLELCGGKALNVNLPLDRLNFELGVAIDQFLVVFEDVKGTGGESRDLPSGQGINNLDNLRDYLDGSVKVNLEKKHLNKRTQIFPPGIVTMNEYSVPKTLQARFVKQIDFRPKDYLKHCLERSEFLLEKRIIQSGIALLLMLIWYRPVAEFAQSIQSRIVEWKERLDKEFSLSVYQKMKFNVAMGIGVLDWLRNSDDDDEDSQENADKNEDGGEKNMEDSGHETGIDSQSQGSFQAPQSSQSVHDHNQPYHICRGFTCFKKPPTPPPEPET
Sequence of Hexokinase (Q38C41 whole entry): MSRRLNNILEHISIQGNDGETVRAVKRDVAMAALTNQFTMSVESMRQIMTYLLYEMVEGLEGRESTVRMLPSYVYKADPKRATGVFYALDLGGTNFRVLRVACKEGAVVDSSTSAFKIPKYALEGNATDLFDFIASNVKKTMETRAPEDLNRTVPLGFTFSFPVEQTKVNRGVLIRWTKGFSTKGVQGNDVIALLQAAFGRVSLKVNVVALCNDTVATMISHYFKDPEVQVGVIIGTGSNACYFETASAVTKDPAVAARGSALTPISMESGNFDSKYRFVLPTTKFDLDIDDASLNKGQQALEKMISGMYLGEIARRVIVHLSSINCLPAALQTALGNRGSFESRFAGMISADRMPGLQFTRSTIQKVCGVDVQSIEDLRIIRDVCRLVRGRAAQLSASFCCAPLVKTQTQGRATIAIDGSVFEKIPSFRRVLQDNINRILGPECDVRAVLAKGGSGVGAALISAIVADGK
Sequence of Nucleotide-binding oligomerization domain-containing protein 1 (Q9Y239 whole entry, the tested form may be a part): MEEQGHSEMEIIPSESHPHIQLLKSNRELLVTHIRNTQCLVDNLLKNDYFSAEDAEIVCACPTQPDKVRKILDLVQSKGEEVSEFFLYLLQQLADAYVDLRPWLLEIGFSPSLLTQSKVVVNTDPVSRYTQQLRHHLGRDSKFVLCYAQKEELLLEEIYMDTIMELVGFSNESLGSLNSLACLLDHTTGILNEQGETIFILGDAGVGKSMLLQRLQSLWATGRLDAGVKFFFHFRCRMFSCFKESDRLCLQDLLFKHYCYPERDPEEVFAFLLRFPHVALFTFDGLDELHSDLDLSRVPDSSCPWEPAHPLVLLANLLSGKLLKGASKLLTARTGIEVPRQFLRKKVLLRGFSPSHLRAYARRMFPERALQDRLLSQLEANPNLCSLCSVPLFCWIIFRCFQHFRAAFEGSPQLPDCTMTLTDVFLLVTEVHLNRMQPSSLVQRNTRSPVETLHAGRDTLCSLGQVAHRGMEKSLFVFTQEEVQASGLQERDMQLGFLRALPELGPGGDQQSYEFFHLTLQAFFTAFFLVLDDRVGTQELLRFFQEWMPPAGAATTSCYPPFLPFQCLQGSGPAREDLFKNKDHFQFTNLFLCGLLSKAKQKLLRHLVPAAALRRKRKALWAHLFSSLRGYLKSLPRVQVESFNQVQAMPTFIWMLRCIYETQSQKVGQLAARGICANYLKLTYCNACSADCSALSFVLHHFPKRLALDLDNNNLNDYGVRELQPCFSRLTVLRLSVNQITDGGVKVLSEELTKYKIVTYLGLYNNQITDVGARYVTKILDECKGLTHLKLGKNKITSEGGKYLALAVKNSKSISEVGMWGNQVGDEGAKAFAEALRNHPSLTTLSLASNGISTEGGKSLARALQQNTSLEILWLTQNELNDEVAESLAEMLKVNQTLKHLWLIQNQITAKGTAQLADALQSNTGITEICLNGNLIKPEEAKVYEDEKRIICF

In the case of `O=c1c2ccccc2sn1-c1nccs1`, the IC50 at Phosphomannomutase 2 is > 100 µM (inactive); in test [1], 42.5 µM (active); at Large T antigen it was 12.9 µM (active); in test [2], 11.3 µM (active); in [3], 13.5 µM (active); in test [4], 2.65 µM (active). Moreover, the CC50 in the test on Vero is > 25 µM (active).

Consider `CCc1cc2c3c(c1)C(C)CC(C)(C)N3C(=O)/C2=C1\SC(=O)NC1=O` (configuration not stated), for which the IC50 in the test with HEK293 [5] is > 20 µM (inactive); with HEK293 [6], 16.4 µM (active); at Tumor necrosis factor, 8.16 µM (active); in test [8], 5.04 µM (active); with HEK293 [9], 10.8 µM (inactive); in test [10], 5.9 µM (active). Further, the IC50 in the test on HEK293 [11] was > 20 µM (inactive); in the test with HEK293 [12] it was > 20 µM (inactive); in [14], 14.3 µM (not active). For the same molecule, the results for the EC50 (in [7]; in the test with HEK293 [13]) were 10.4 µM (active) and 7.46 µM (active), respectively.

Turning to `COc1ccc(C(=O)Nc2cc(C)ccc2C(=O)O)cc1`, the IC50 on Hexokinase is > 25 µM (inactive).

For `Clc1ccc(CSc2nnc(-c3ccccn3)n2Cc2ccco2)c(Cl)c1`, the EC50 was > 32 µM (inactive) in [15]; > 32 µM (inactive) in [16]; 929 nM (active) in test [19]; > 32 µM (inactive) at Mu-type opioid receptor [20]; 1.86 µM (active) in test [21]; > 32 µM (inactive) on Mu-type opioid receptor [22]. The EC50 in test [25] stood at 2210 nM; in test [26], 1250 nM. Further, the IC50 (in test [17]; in test [18]; in test [23]; on Mu-type opioid receptor [24]) was > 32 µM (inactive) in each case.

On to `O=C(COc1ccccc1Cl)Nc1nnc(-c2ccc(F)cc2)o1`, for which the EC50 in test [27] is 4.6 µM (active).

Usually IC50 stands for the point on the concentration scale where inhibition reaches its midpoint. Usually CC50 stands for the concentration giving 50% cytotoxicity. Broadly, the EC50 is the concentration needed to bring the measured effect to its halfway point.
